Data: US9963461B2, “Phillygenin ibuprofen ester, preparation method therefor, and application thereof” (priority 2014, dated 2018)
Marks after values point to notes of the source that are not given here.

Key:
[1] = test system: mice pain induced by acetic acid; assay: Analgesic test, mice writhing induced by acetic acid; type: in vivo, Kunming mice; conditions: 200 mg/kg intragastric; within 15 min after 0.7% acetic acid
Method: 72 Kunming mice were randomly divided into 6 groups, with 12 mice for each group. (1) the blank normal control group (i.e. saline group, […]); (2) positive drug aspirin group (200 mg/kg); (3) ibuprofen group (300 mg/kg); (4) high dose group of phillygenin ibuprofen ester (300 mg/kg); (5) medium dose group of phillygenin ibuprofen ester (150 mg/kg); (6) low dose group of phillygenin ibuprofen ester (75 mg/kg). […] The number of mice writhings within 15 min after administration was recorded. The number of writhings was taken as the evaluation index to evaluate the analgesic effect.

[2] = test system: rat toe swelling induced by carrageenan; assay: Rat toe swelling induced by carrageenan; type: in vivo, Wistar rats; conditions: 200 mg/kg sublingual intravenous injection
Method: The test groups were administered by sublingual intravenous injection. Before the test, capillary magnification measurement method was used to measure the normal volume of the right hind foot of the rats in each group. To avoid errors, the measurement location was fixed and the operation was made by one person both before and after the administration. The average value of the two measurements was taken as the normal volume of the right hind foot of the rats before administration. […] The difference between the groups was compared by inter-group t test processing through the difference percentage (swelling ratio) of the paw volume before and after the induced rat inflammation.

[3] = test system: beer yeast induced rat fever; assay: Beer yeast induced rat fever; type: in vivo, Wistar rats; conditions: 100 mg/kg
Method: Male Wistar rats were selected, weighing 180-200 g. Before the test, WSC-411P portable digital thermometer was used to measure the normal rectal temperature twice (with certain interval for each time), and the average value of the two measurements was taken as the normal body temperature of the rat. Then 70 rats with the body temperature between 36.5° C. and 38° C. were chosen to be randomly divided into 7 groups by weight: the model (0.5% carboxymethylcellulose) group, the 2.5, 5, and 10 mg/kg phillygenin ibuprofen ester groups, the positive drug paracetamol (100 mg/kg) group, the ibuprofen group (i.e. prodrug control group, 300 mg/kg), the phillygenin group (100 mg/kg), with 10 rats for each group. Each group of rats were subjected to back subcutaneous injection with 10% fresh beer yeast suspension of 10 ml/kg to induce heat. After administration of 10% fresh beer yeast suspension for 6.0 h, phillygenin ibuprofen ester and paracetamol were both subjected to intragastric administration, and the model group was intragastrically administrated with equal volume of 0.5% carboxymethylcellulose. Rectal temperature was measured after 1 h, 2 h, 3 h and 4 h of the administration respectively. Changes in the body temperature were observed and difference between the groups was compared by inter-group t test processing through antipyretic percentage.

[4] = test system: rabbit fever induced by typhoid and paratyphoid vaccine; assay: Rabbit fever induced by typhoid and paratyphoid vaccine; type: in vivo, Japanese white rabbits; conditions: 50 mg/kg
Method: Japanese male big-ear white rabbits, weighing 1.5-2.0 kg. Before the test, WSC-411P portable digital thermometer was used to measure the normal rectal temperature twice (with certain interval for each time), and the average value was taken as the normal body temperature. Then 48 Japanese big-ear white rabbits with body temperature of 38-39.6° C. were selected and randomly divided into 8 groups by weight, namely: the blank control (normal saline) group, the model control (0.5% carboxymethylcellulose) group, the ibuprofen group (300 mg/kg), the phillygenin group (10 mg/kg), the 1.25, 2.5, and 5 mg/kg phillygenin ibuprofen ester groups and the positive drug paracetamol (50 mg/kg) group. The rabbits were fixed in a fixator. The blank control group was intravenously injected with normal saline of 1 ml/kg via the ear margin; The model control group and the drug groups were intravenously injected with typhoid and paratyphoid vaccines of 0.8 ml/kg via the ear margin. When the body temperature rise of the rabbits was greater than 1° C. (requiring about 1-1.5 h, which was restricted to 1 h in this test), the blank control group and the model group were administered intragastrically with 0.5% carboxymethycellulose of 1 ml/kg, and the drug groups were administered intragastrically with phillygenin ibuprofen ester and paracetamol. […]

[5] = test system: sweat secretion of rat paw part; assay: Sweat secretion of rat paw part (coloring method); type: in vivo, Wistar rats; conditions: 35.0 mg/kg subcutaneous; for Animal number of sweat points of level +: + = sweat area below about 10%; for Animal number of sweat points of level ++: ++ = sweat area about 11-40%; for Animal number of sweat points of level +++: +++ = sweat area about 41-70%; for Animal number of sweat points of level ++++: ++++ = sweat area over 71%; for Animal number of sweat points of level −: − = no sweat point
Source text: This test was designed to observe the change of sweat secretion based on the mechanism that sweat gland is distributed on the rat paw pads, and iodine and starch can have purple reaction when encountered with sweat. In the test, 350 Wistar rats were selected, with equal male and female number, weighing 120-150 g. […] The rats were placed in a self-made rat fixation bag, with the double hind limbs exposed. The dirts on the right paw was gently scrubbed clean with the cotton swab dipped with anhydrous ethanol. Besides that subcutaneous injection was used for the pilocarpine solution, intragastric administration was used for all the other groups. […] When the test was complete, statistical process was carried out according to the rank-sum test with two-sample comparison, in order to compare the difference between the groups.

[6] = test system: sweat gland epithelial cells at the rat toe part; assay: Sweat secretion of rat paw part (tissue morphology observation method); type: in vivo, Wistar rats; conditions: rat toe part; 35.0 mg/kg subcutaneous
Source text: This test was based on the mechanism that when rat sweat gland is excited, in addition to sweat secretion increase, the morphology of sweat gland epithelial cell is also changed. The number increase and expansion of empty cells of the sweat gland epithelial cells can be seen under the optical microscope. Such enlarged vacuole presents mitochondrial in sweat gland epithelial cells swelling, rupture, fusion and secretory vesicle enlargement under the electron microscope, and through the morphological observation of the sweat gland epithelial cell at the rat paw part, the secretory activity of the sweat gland can be known. In the test, 70 Wistar rats were selected, with equal male and female number, weighing 120-160 g. […] Besides that subcutaneous injection was used for the pilocarpine solution, intragastric administration was used for all the other groups.

[7] = test system: influenza virus; assay: Impact of the drugs on the virus-induced cytopathy (MTT); type: cell-based
[8] = test system: parainfluenza virus; assay: as above; type: cell-based; conditions: parainfluenza virus 100 TCID50, Vero cells, about the maximal non-cytotoxic concentration, 72 hours
[9] = test system: Coxsackie virus A16 (CoxA16); assay: as above; type: cell-based; conditions: CoxA16 100 TCID50, Vero cells, about the maximal non-cytotoxic concentration, 72 hours
[10] = test system: respiratory syncytial virus (RSV); assay: as above; type: cell-based; conditions: RSV 100 TCID50, Vero cells, about the maximal non-cytotoxic concentration, 72 hours
[11] = test system: Herpes Simplex Virus type I (HSV-1); assay: as above; type: cell-based; conditions: HSV-I 100 TCID50, Vero cells, about the maximal non-cytotoxic concentration, 72 hours
[12] = test system: Adenovirus (AdV); assay: as above; type: cell-based; conditions: ADV 100 TCID50, Vero cells, about the maximal non-cytotoxic concentration, 72 hours
[13] = test system: Enterovirus EV71; assay: as above; type: cell-based; conditions: EV71 100 TCID50, Vero cells, about the maximal non-cytotoxic concentration, 72 hours
[14] = test system: coxsackie virus B3 (CVB3); assay: as above; type: cell-based; conditions: CVB3 100 TCID50, Vero cells, about the maximal non-cytotoxic concentration, 72 hours
[15] = test system: influenza virus; type: in vivo, Kunming mice; conditions: lung suspensions, influenza virus infected mice; 58.5 mg/kg/d, 5 days
[16] = test system: parainfluenza virus; type: in vivo, Kunming mice; conditions: lung suspensions, parainfluenza virus infected mice; 58.5 mg/kg/d, 5 days
[17] = time after administration (min) 30
[18] = time after administration (min) 60
[19] = time after administration (min) 90
[20] = time after administration (min) 120
[21] = time after administration (min) 180
[22] = after coating B liquid for 1 minute
[23] = after coating B liquid for 5 minutes
[24] = after coating B liquid for 10 minutes
[25] = after coating B liquid for 15 minutes (Table 2-4)
[26] = after coating B liquid for 15 minutes (Table 2-5)

SMILES: CC(=O)Oc1ccccc1C(=O)O [Aspirin]
- Writhing times [1]: 5.0*
- Swelling ratio (%) ([2]; 30 min): 0.120 ± 0.138 %
- Swelling ratio (%) ([2]; 60 min): 0.168 ± 0.172 %
- Swelling ratio (%) ([2]; 120 min): 0.215 ± 0.178 %
- Swelling ratio (%) ([2]; 180 min): 0.343 ± 0.337 %
- Swelling ratio (%) ([2]; 240 min): 0.470 ± 0.289 %
- Swelling ratio (%) ([2]; 300 min): 0.690 ± 0.369%
- Swelling ratio (%) ([2]; 360 min): 0.525 ± 0.338 %

SMILES: CC(=O)Nc1ccc(O)cc1 [Paracetamol]
- Body temperature (° C.) ([3]; 1 h after administration): 38.66 ± 0.58 °C
- antipyretic percentage (%) ([3]; 1 h after administration): −2.07 ± 0.54 %
- Body temperature (° C.) ([3]; 2 h after administration): 38.19 ± 0.59 °C
- antipyretic percentage (%) ([3]; 2 h after administration): −3.27 ± 0.77 %
- Body temperature (° C.) ([3]; 3 h after administration): 37.98 ± 0.19 °C
- antipyretic percentage (%) ([3]; 3 h after administration): −3.80 ± 1.43 %
- Body temperature (° C.) ([3]; 4 h after administration): 37.84 ± 0.32 °C
- antipyretic percentage (%) ([3]; 4 h after administration): −4.15 ± 1.59 %
- Body temperature (° C.) [4, 17]: 40.53 ± 0.68 °C
- antipyretic percentage (%) [4, 17]: −1.14 ± 0.59 %
- Body temperature (° C.) [4, 18]: 40.10 ± 0.48 °C
- antipyretic percentage (%) [4, 18]: −2.18 ± 0.16 %
- Body temperature (° C.) [4, 19]: 39.83 ± 0.57 °C
- antipyretic percentage (%) [4, 19]: −2.83 ± 0.16 %
- Body temperature (° C.) [4, 20]: 39.72 ± 0.54 °C
- antipyretic percentage (%) [4, 20]: −3.11 ± 0.29 %
- Body temperature (° C.) [4, 21]: 39.61 ± 0.48 °C
- antipyretic percentage (%) [4, 21]: −3.38 ± 0.25 %

SMILES: CC[C@@H]1C(=O)OC[C@@H]1Cc1cncn1C [Pilocarpine]
- Animal number of sweat points of level + [5, 22]: 1
- Animal number of sweat points of level ++ [5, 22]: 3
- Animal number of sweat points of level +++ [5, 22]: 1
- Animal number of sweat points of level ++++ [5, 22]: 5
- Animal number of sweat points of level − [5, 22]: 0
- Animal number of sweat points of level + [5, 23]: 1
- Animal number of sweat points of level ++ [5, 23]: 2
- Animal number of sweat points of level +++ [5, 23]: 1
- Animal number of sweat points of level ++++ [5, 23]: 6
- Animal number of sweat points of level − [5, 23]: 0
- Animal number of sweat points of level + [5, 24]: 1
- Animal number of sweat points of level ++ [5, 24]: 2
- Animal number of sweat points of level +++ [5, 24]: 1
- Animal number of sweat points of level ++++ [5, 24]: 6
- Animal number of sweat points of level − [5, 24]: 0
- Animal number of sweat points of level + [5, 25]: 0
- Animal number of sweat points of level ++ [5, 25]: 2
- Animal number of sweat points of level +++ [5, 25]: 1
- Animal number of sweat points of level ++++ [5, 25]: 6
- Animal number of sweat points of level − [5, 25]: 0
- Animal number of sweat points of level + [5, 26]: 0
- Animal number of sweat points of level ++ [5, 26]: 2
- Animal number of sweat points of level +++ [5, 26]: 1
- Animal number of sweat points of level ++++ [5, 26]: 6
- Animal number of sweat points of level − [5, 26]: 0
- Number of sweat glands of vacuole [6]: 57
- Void fraction (%) [6]: 27.40*** %

SMILES: NC(=O)c1ncn([C@@H]2O[C@H](CO)[C@@H](O)[C@H]2O)n1 [Ribavirin, ribavirin]
- antiviral effective rate (ER %) [7]: 57.49* %
- antiviral effective rate (ER %) [8]: 81.56** %
- antiviral effective rate (ER %) [9]: 0.70%
- antiviral effective rate (ER %) [10]: 50.08* %
- antiviral effective rate (ER %) [11]: 60.92* %
- antiviral effective rate (ER %) [12]: 0.43%
- antiviral effective rate (ER %) [13]: 4.25%
- antiviral effective rate (ER %) [14]: 13.44%
- Hemagglutination titer (InX) [15]: 21.91 ± 1.050
- Hemagglutination titer Inhibitive rate (%) [15]: 32.39%
- Hemagglutination titer (InX) [16]: 23.22 ± 1.091
- Hemagglutination titer Inhibitive rate (%) [16]: 24.53%
